The text below walks through data of patent publication US8962646B2, “Peripherally acting opioid compounds” (Alkermes, Inc., priority 2011, dated 2015).

The subject of one data set is formalin-induced events. Briefly: Formalin model of pain. The settings on record: rats. The format is in vivo. The method, then: Nonfasted male Harlan rats were assigned to treatment group according to a randomized block study design to balance for test chamber and time of day, and day of test (if applicable). Each rat was administered either vehicle or test compound subcutaneously and then placed in their assigned test chamber and acclimated for 25-30 minutes with the chamber enclosure door left open. Data was not collected during this period. Following the acclimation period, each rat was removed individually starting with chamber 1, and dosed 5% formalin subcutaneously into the right rear paw plantar surface (formalin was made from a 37% stock solution, diluted down to 5% with saline).
Data collection started when the first rat was replaced in chamber 1 and the chamber door was closed and latched (skipped 1-minute acclimation screen on software). The number of events (also defined as “number of seconds”), defined as the number of 1-second bins with a change in dynamic force that exceeded an empirically determined threshold value (a value of arbitrary load units, which corresponded visually with rats quietly breathing or sniffing), were totaled in 5-minute intervals. In control rats, the number of events first increases within 5 minutes and then decreases during the subsequent 5 minutes (a quiescent phase) after formalin administration (Phase I, or Early Phase, of the formalin test), then increases again during the subsequent 35 minutes (Phase II, or Late Phase) of the formalin test. Formalin-induced movements detected by the system include licking and flinching of the affected paw as well as hopping and turning.
For constructing summaries for analysis of dose response curves or screens in the formalin test, the total number of events during the first 5 minutes after formalin administration was considered to be Phase I (Early Phase), and the total number of events for minutes 11 to 35 after formalin was considered to be Phase II (Late Phase). Data were analyzed using 1-way ANOVA, and comparisons of drug treatment groups were compared with control groups using appropriate, statistician-guided tests—most commonly Dunnett's for dose response curves and a Student's t-test for two-group (i.e. vehicle vs. positive control) comparison—utilizing JMP statistical software (SAS Institute Inc, Cary, N.C.). Data was expressed as means±SEM. An ED50 was calculated utilizing GraphPad Prism software.

Data set [1] has as its system CFA-induced weight bearing deficits. Briefly: CFA induced weight bearing deficits in rats.
Experimental: Animals were habituated to the weight bearing test apparatus for 2 days prior to the start of the experiment. On Day 0, rats were tested in the weight bearing apparatus to measure baseline weight bearing of untreated hind paws. Following baseline testing, animals were injected intra-plantar with Complete Freund's Adjuvant (CFA). Using a syringe with a locking hub and 25 G needle, rats were injected via rear, left intra-plantar administration with 100 μL of 100% CFA (1.0 mg/ml) while under light isofluorane anesthesia. No treatment was administered to the right, rear, contralateral paw.
Intra-plantar test-compound administration was done while the animal was under light (3%) isofluorane anesthesia using 0.3 ml insulin syringe. The amount of anesthesia given to the animal during test compound administration was limited to a very short duration, so not to impede measurement of weight bearing at the 5 minute time point. On Day 1 (24 hrs post CFA), rats were tested in the weight bearing apparatus to measure CFA-induced changes in weight bearing. […] Following test compound administration, animals were retested in the weight bearing apparatus at the following time points: 5, 15, 30, 60 and 120 minutes post-test compound administration. Animals were retested on Day 2 (post-CFA) if there is a significant change in CFA induced weight bearing at the 120 minute time point on Day 1.
For data set [2], the system named is hot plate response latency. Briefly: Rat hot plate model of centrally mediated analgesia. Particulars: SC 7.5 mg/kg, hot plate 52.5° C.
Experimental: Rats were then tested on the hot plate 5, 30, 60, 120, 240 and 360 minutes later. The amount of time it took to lick one hind paw is measured and is considered the response latency. The mean and SEM of the responses latencies for each experimental group were calculated and a line depicting mean hot plate latency vs. time was generated using GraphPad Prism. An increase in mean response latency above baseline following test compound administration is indicative of an antinociceptive effect.
Another data set has as its system mice. Briefly: In vivo behavioral studies (clinical observation assay). Particulars: 10 mg/kg SC, observed over 24 hours.
The target of data set [3] is T1, human μ opioid receptor (Homo sapiens (Human), UniProt P35372). The settings on record: read-out: Binding affinity μ (Ki, nm).
The next data set concerns the target human κ opioid receptor (Homo sapiens (Human), UniProt P41145). Particulars: read-out: Binding affinity κ (Ki, nm).
The target in another data set is human δ opioid receptor (Homo sapiens (Human), UniProt P41143). Briefly: Receptor binding, competitive displacement of [3H]naltrindole. Particulars: CHO cell membranes, cloned human receptor, 0.2 nM [3H]naltrindole. (In general: Displacement assays read how much labelled ligand stays bound in the presence of the test substance.)
Data set [4] concerns the target T1, human μ opioid receptor. The data set is classed as biochemical. Here is the method: The [^35S]GTPγS assay measures the functional properties of a compound by quantifying the level of G-protein activation following agonist binding in studies using stably transfected cells, and is considered to be a measure of the efficacy of a compound. Membranes from CHO (Chinese Hamster Ovary) cells that stably expressed the cloned human Mu opioid receptor were used in the experiments. In a final volume of 0.5 mL, 12 different concentrations of each test compound were incubated with 7.5 μg of CHO cell membranes that stably expressed the human μ opioid receptor. The assay buffer consisted of 50 mM Tris-HCl, pH 7.4, 3 mM MgCl2, 0.2 mM EGTA, 3 μM GDP, and 100 mM NaCl. The final concentration of [^35S]GTPγS was 0.080 nM. Nonspecific binding was measured by inclusion of 10 μM GTPγS. Binding was initiated by the addition of the membranes. After an incubation of 60 min at 30° C., the samples were filtered through Schleicher & Schuell No. 32 glass fiber filters. The filters were washed three times with cold 50 mM Tris-HCl, pH 7.5, and were counted in 2 mL of Ecoscint scintillation fluid.

Setting [5] is: CHO cell membranes, cloned human receptor, 1 nM [3H]U69,593.
Setting [6] is: read-out: Binding affinity δ (Ki, nm).
[7] abbreviates: [35S]GTPγS binding, CHO membranes.
Setting [8] is: CHO cell membranes, cloned human receptor, […] [3H]DAMGO.

Entries after “also recorded” stand apart in the source; their conditions may differ. Where a name gives a salt, the structure may show the parent alone. Read-outs that look alike come from different tables or passages of the source. Where only a bound is given, the exact number is not on record here.

Experimental for mice: Groups of mice (n=5 per group; >60 days; 20-25 grams weight) were dosed with vehicle (0.9% sterile saline) or test compounds (10 mg/kg free base, SC) 30 minutes before the first observation period. The occurrence of Straub tail, piloerection, hyperlocomotion, hypolocomotion, circling of the cage, sedation, breathing abnormalities, diuresis, seizure activity and occurrences of death were recorded at 0.5, 1, 2, 4, 6 and 24 hours following dosing.
This is tested with our clinical observation assay where mice are injected with 10 mg/kg subcutaneously with drug and the behaviors are noted over 24 hours.

`CN1CC[C@]23c4c5ccc(O)c4O[C@H]2[C@@H](O)C=CC3C1C5` (some centres unmarked) [A, morphine, reference compound]: the ED50 (usually the dose that gives a 50% effect, or the effect in half of the subjects) in the data set on formalin-induced events (Rattus norvegicus, sc, subcutaneous, read-out: Formalin test ED50) was 2.4 mg/kg. Besides, the “Effect on early and late phase of formalin test” value in the data set with formalin-induced events (10 mg/kg) was “completely mitigates both the early and late phase effects of formalin”. Further, the “Analgesic effect with concurrent intra-plantar 75 ug naloxone methiodide” value in data set [1] (10 μg/paw intra-plantar) was “significantly inhibited”. Moreover, the “Reversal of CFA-induced weight bearing deficits” value in data set [1] (intra-plantar, 3, 10 and 30 μg/paw) is listed as “dose-dependent reversal of CFA-induced weight bearing deficits”. For the same molecule, the “Hot plate antinociception (response latency)” value in data set [2] was 60 s. The “Clinical Observations after 10 mg/kg subcutaneous injection” value (“Clinical Observations” for short) in the data set with mice was “Multiple central nervous system like effects: Straub tail, hyperlocomotion, circling”; with mice (listed as morphine) it was “severe effects that reflect mu agonism in the brain”.

On to `CN1CC[C@]23CC(=O)CC[C@@]2(O)[C@H]1Cc1ccc(C(=O)NCCc2ccc(-c4ccccc4)cc2)c(O)c13.Cl` [B, reference compound], for which the Ki (as a rule, the equilibrium dissociation constant of an inhibitor or competing ligand from its target) is 0.00039 µM on human μ opioid receptor [3], 0.00071 µM on human κ opioid receptor (setting [5]) and 0.0054 µM on human δ opioid receptor (setting [6]). Besides, the “In vitro functional agonism for μ receptor Agonist?” value (shortened to “In vitro functional agonism”) on human μ opioid receptor [4] is “Yes”. Besides, the “Clinical Observations” value in the data set with mice is recorded as “Angioedema; Straub tail, hypolocomotion, mortality”; in the data set with mice (listed as Compound-B), “severe effects that reflect mu agonism in the brain; also recorded: observed mortality”.

For `CN1CC[C@]23CC(=O)CC[C@@]2(O)[C@H]1Cc1ccc(C(=O)NCCc2nc4ccccc4[nH]2)c(O)c13` [Compound 1], the figures for the Ki at human μ opioid receptor [3], on human κ opioid receptor (setting [5]) and at human δ opioid receptor (setting [6]) were 0.027 µM, 0.85 µM and 0.49 µM, respectively. Further, the “In vitro functional agonism” value at human μ opioid receptor [4] is on record as “Yes”. Besides, the “Clinical Observations” value with mice is recorded as “None”.

Regarding `O=C1CC[C@@]2(O)[C@H]3Cc4ccc(C(=O)NCCc5ccc(-c6c[nH]c(=O)[nH]c6=O)cc5)c(O)c4[C@@]2(CCN3CCc2ccccc2)C1` [Compound 2, N-{2-[4-(2,4-Dioxo-1,2,3,4-tetrahydropyrimidin-5-yl)phenyl]ethyl}-4,14-dihydroxy-6-oxo-17-(2-phenylethyl)morphinan-3-carboxamide], the “In vitro functional agonism” value at human μ opioid receptor [4] (setting [7]) is “Yes”. In the data set on mice, the “Clinical Observations” value was “None”.

As for `CN1CC[C@]23CC(=O)CC[C@@]2(O)[C@H]1Cc1ccc(C(=O)NCCc2ccc(-c4ccc(=O)[nH]c4)cc2)c(O)c13` [Compound 3], the Ki on human μ opioid receptor [3] (setting [8]) is 0.00063 µM; at human κ opioid receptor (setting [5]) it was 0.18 µM; on human δ opioid receptor (setting [6]), 0.017 µM. Also, the “In vitro functional agonism” value on human μ opioid receptor [4] (setting [7]) is “Yes”. Besides, in the data set on mice, the “Clinical Observations” value is given as “None”.

On to `C=C1CC[C@@]2(O)[C@H]3Cc4ccc(C(=O)NCCc5ccc(-c6c[nH]c(=O)[nH]c6=O)cc5)c(O)c4[C@@]2(CCN3C)C1` [Compound 6], for which the inhibition constant Ki on human μ opioid receptor [3] (setting [8]) amounted to 0.0035 µM; on human κ opioid receptor (setting [5]), 1 µM; on human δ opioid receptor (setting [6]), 0.097 µM. Also, the “In vitro functional agonism” value at human μ opioid receptor [4] (setting [7]) is listed as “Yes”. Further, the “Clinical Observations” value in the data set with mice was “None”.

As to `CO[C@@]12CCC(=O)C[C@@]13CCN(C)[C@@H]2Cc1ccc(C(=O)NCCc2ccc(-c4c[nH]c(=O)[nH]c4=O)cc2)c(O)c13` [Compound 7], the Ki worked out at 0.00052 µM on human μ opioid receptor [3], 0.86 µM at human κ opioid receptor (setting [5]) and 0.042 µM on human δ opioid receptor (setting [6]). In addition, at human μ opioid receptor [4], the “In vitro functional agonism” value is “Yes”. The “Clinical Observations” value in the data set on mice is recorded as “None”.

Regarding `CN1CC[C@]23CC(=O)CC[C@@]2(O)[C@H]1Cc1ccc(C(=O)NCCc2ccc(-c4cn[nH]c4)cc2)c(O)c13` [Compound 8], the Ki at human μ opioid receptor [3] (setting [8]) is 0.00015 µM; at human κ opioid receptor (setting [5]), 0.019 µM; on human δ opioid receptor (setting [6]), 0.0021 µM. In addition, at human μ opioid receptor [4] (setting [7]), the “In vitro functional agonism” value was “Yes”. The “Clinical Observations” value in the data set on mice is given as “None”.

For the molecule `CN1CC[C@]23CC(=O)CCC2[C@H]1Cc1ccc(C(=O)NCCc2nc4ccccc4[nH]2)c(O)c13` (some centres unmarked) [Compound 9], the inhibitory constant (Ki) turned out to be 0.0017 µM on human μ opioid receptor [3] (setting [8]), 0.4 µM at human κ opioid receptor (setting [5]) and 0.28 µM at human δ opioid receptor (setting [6]). Also, the “In vitro functional agonism” value at human μ opioid receptor [4] (setting [7]) is “Yes”. Besides, the “Clinical Observations” value in the data set on mice is “None”.

Take `CN1CC[C@]23CC(=O)CC[C@@]2(O)[C@H]1Cc1ccc(C(=O)NCCc2ccc(-c4cc[nH]c(=O)c4)cc2)c(O)c13` [Compound 10, 4,14-dihydroxy-N-{2-[4-(2-hydroxypyridin-4-yl)phenyl]ethyl}-17-methyl-6-oxomorphinan-3-carboxamide]: the Ki at human μ opioid receptor [3] (setting [8]) is 0.00043 µM; on human κ opioid receptor it was 0.14 µM; on human δ opioid receptor (setting [6]), 0.01 µM. In addition, the “In vitro functional agonism” value at human μ opioid receptor [4] (setting [7]) was “Yes”. In the data set on mice, the “Clinical Observations” value was “None”.

In the case of `CN1CC[C@]23CC(=O)CC[C@@]2(O)[C@H]1Cc1ccc(C(=O)NCCc2ccc(-c4cnc(=O)[nH]c4)cc2)c(O)c13` [Compound 11, 4,14-dihydroxy-17-methyl-6-oxo-N-{2-[4-(2-oxo-1,2-dihydropyrimidin-5-yl)phenyl]ethyl}morphinan-3-carboxamide maleate salt], the Ki on human μ opioid receptor [3] (setting [8]) is 0.0016 µM; at human δ opioid receptor (uM, read-out: Binding affinity δ (Ki)), above 1 µM. Further, the “In vitro functional agonism” value at human μ opioid receptor [4] (setting [7]) was “Yes”. For the same molecule, the “Clinical Observations” value in the data set with mice was “None”.

On to “(4bS,9R)—N-(4-(2,4-dioxo-1,2,3,4-tetrahydropyrimidin-5-yl)phenethyl)-4-hydroxy-11-methyl-6-oxo-6,7,8,8a,9,10-hexahydro-5H-9,4b-(epiminoethano)phenanthrene-3-carboxamide [Compound 5]”, for which the Ki at human μ opioid receptor [3] (setting [8]) stood at 0.0017 µM; at human κ opioid receptor, 0.68 µM; at human δ opioid receptor (setting [6]) it was 0.051 µM. In addition, at human μ opioid receptor [4] (setting [7]), the “In vitro functional agonism” value is “Yes”. For the same molecule, in the data set with mice, the “Clinical Observations” value was “None”.
